Columns and labels:
CCRF-CEM = experiment: NCI antiproliferative SRB assay, Leukemia panel; format: cell-based, Human
MOLT-4 = experiment: NCI antiproliferative SRB assay, Leukemia panel; format: cell-based, Human
HCT-15 = experiment: NCI antiproliferative SRB assay, Colon Cancer panel; format: cell-based, Human
HT29 = experiment: as above; format: cell-based, Human
SF-539 = experiment: NCI antiproliferative SRB assay, CNS Cancer panel; format: cell-based, Human
M14 = experiment: NCI antiproliferative SRB assay, Melanoma panel; format: cell-based, Human
UACC-62 = experiment: NCI antiproliferative SRB assay, Melanoma panel; format: cell-based, Human
OVCAR-5 = experiment: NCI antiproliferative SRB assay, Ovarian Cancer panel; format: cell-based, Human
SN 12C = experiment: NCI antiproliferative SRB assay, Renal Cancer panel; format: cell-based, Human
TK-10 = experiment: as above; format: cell-based, Human
MDA-MB-231 = experiment: NCI antiproliferative SRB assay, Breast Cancer panel; format: cell-based
T-47D = experiment: as above; format: cell-based, Human
MDA-MB-468 = experiment: as above; format: cell-based, Human
Description: The antiproliferative activity of tested compounds was done against five dozen (60) cancer cell lines derived from nine different panels. All of the compounds were evaluated for antiproliferative activity in a single dose at 10 µM. Growth percent (GP) and percent growth inhibition (% GI) were used to calculate antiproliferative activity. […] The antiproliferative results of five-dose assay were calculated as three dose related parameters like, 50% growth inhibition (GI50), 50% lethal concentration (LC50), and total growth inhibition TGI [43, 44, 45, 46, 47].
Human tumor cell lines were grown in RPMI 1640 medium containing 5% fetal bovine serum and 2 mM L-glutamine. For a typical screening experiment, cells were inoculated into 96-well microtiter plates in 100 µL at plating densities ranging from 5000 to 40,000 cells/well, depending on the doubling time of individual cell lines. Two plates of each cell line were fixed in situ with trichloroacetic acid (TCA) after 24 h to represent a cell population measurement for each cell line at the time of drug addition (Ti). The experimental drugs were frozen after being solubilized in dimethyl sulfoxide at 400-fold the desired final maximum test concentration. An aliquot of frozen concentrate was thawed and diluted to twice the desired final maximum test concentration with medium containing 50 µg/mL gentamicin at the time of drug addition. Additional four, 10-fold, or ½ log serial dilutions serial dilutions were performed to provide a total of five drug concentrations plus the control. Aliquots of 100 µL of these different drug dilutions were added to the appropriate microtiter wells already containing 100 µL of medium, resulting in the required final drug concentrations. Following drug addition, the plates are incubated for an additional 48 h at 37 °C, 5% CO2, 95% air, and 100% relative humidity. For adherent cells, the assay is terminated by the addition of cold TCA. Cells are fixed in situ by the gentle addition of 50 µL of cold 50% (w/v) TCA (final concentration, 10% TCA) and incubated for 60 min at 4 °C. The supernatant is discarded, and the plates are washed five times with tap water and air dried. Sulforhodamine B (SRB) solution (100 µL) at 0.4% (w/v) in 1% acetic acid was added to each well, and plates were incubated for 10 min at room temperature. After staining, unbound dye was removed by washing five times with 1% acetic acid and the plates were air dried. Bound stain was subsequently solubilized with 10 mM trizma base, and the absorbance was read on an automated plate reader at a wavelength of 515 nm. For suspension cells, the methodology was the same except that the assay was terminated by fixing settled cells at the bottom of the wells by gently adding 50 µL of 80% TCA (final concentration, 16% TCA). […]
Antiproliferative activity
The anticancer screening was carried ou t as per the NCI US protocol. Using the seven absorbance measurements (time zero, (Ti), control growth, (C), and test growth in the presence of drug at the five concentration levels (Tf)), the percentage growth was calculated at each of the drug concentrations level as [( Tf−Ti × 100 for concentrations for which Tf ≥ Ti, and Tf−Ti × 100 for […]
concentrations for which Tf < Ti.
Three-dose response parameters (GI50, TGI, and LC50) were calculated for each of the experimental agents. Growth inhibition of 50% (GI50) was calculated from 100 × Tf−Ti = 50, , which was […]
the drug concentration resulting in a 50% reduction in the net protein increase (as measured by sulforhodamine B, SRB staining) in control cells during the drug incubation. The total growth inhibition (TGI) was calculated from Tf = Ti, which was the drug concentration resulting in total growth inhibition and signified the cytostatic effect. The LC50 was calculated from 100 × Tf−Ti = −50, , indicating a net loss […]
of cells following treatment which indicated the concentration of drug resulting in a 50% reduction in the […]

[1] = tested on: Non-Small Cell Lung Cancer cell line panel; experiment: NCI antiproliferative assay, panel summary; format: cell-based, Human
Melanoma cell line panel = experiment: NCI antiproliferative assay, panel summary; format: cell-based, Human
[2] = tested on: Prostate Cancer cell line panel; experiment: NCI antiproliferative assay, panel summary; format: cell-based, Human
[3] = Homo sapiens, 5-dose 0.01-100 µM
[4] = Homo sapiens, 5-dose 0.01-100 µM, read-out: LC50 (the source's name)
[5] = Homo sapiens, T47D, 5-dose 0.01-100 µM
[6] = Homo sapiens, 5-dose assay, read-out: Sub Panel MID b (mean GI50 of panel)

With COc1ccc(NC(=O)n2nc(/C=C/c3ccc(O)c(OC)c3)cc2/C=C/c2ccc(O)c(OC)c2)cc1 [3b] the TGI (CCRF-CEM; 5-dose 0.01-100 µM) was 32.7 µM, the GI50 (CCRF-CEM; [3]) was 2.34 µM and the CC50 (CCRF-CEM; [4]) was over 100 µM. For the same compound, the “%GI” value (CCRF-CEM; one dose 10 µM) was 88.23%, the “GP (growth percent)” value (CCRF-CEM; one dose 10 µM) was 11.77 and the TGI (MOLT-4; 5-dose 0.01-100 µM) was 13.3 µM. For the same compound, the GI50 (MOLT-4; [3]) was 2.87 µM, the CC50 (MOLT-4; [4]) was over 100 µM and the “%GI” value (MOLT-4; one dose 10 µM) was 87.76%. For the same compound, the “GP (growth percent)” value (MOLT-4; one dose 10 µM) was 12.24, the TGI (HCT-15; 5-dose 0.01-100 µM) was over 100 µM and the GI50 (HCT-15; [3]) was 2.98 µM. The CC50 (HCT-15; [4]) was over 100 µM, the “GP (growth percent)” value (HCT-15; one dose 10 µM) was 13.17 and the TGI (HT29; 5-dose 0.01-100 µM) was 11.0 µM. For the same compound, the GI50 (HT29; Homo sapiens, HT-29, 5-dose 0.01-100 µM) was 3.52 µM, the CC50 (HT29; Homo sapiens, HT-29, 5-dose 0.01-100 µM, read-out: LC50 (the source's name)) was over 100 µM and the “%GI” value (HT29; one dose 10 µM) was 68.74%. For the same compound, the “GP (growth percent)” value (HT29; one dose 10 µM) was 31.26, the TGI (SF-539; 5-dose 0.01-100 µM) was 13.6 µM and the GI50 (SF-539; [3]) was 2.35 µM. The CC50 (SF-539; [4]) was over 100 µM, the “%GI” value (SF-539; one dose 10 µM) was 93.28% and the “GP (growth percent)” value (SF-539; one dose 10 µM) was 6.72. It also gave a TGI (M14; 5-dose 0.01-100 µM) of 41.5 µM, a GI50 (M14; [3]) of 3.15 µM and a CC50 (M14; [4]) of over 100 µM. For the same compound, the “%GI” value (M14; one dose 10 µM) was 95.03%, the “GP (growth percent)” value (M14; one dose 10 µM) was 4.97 and the TGI (UACC-62; 5-dose 0.01-100 µM) was 6.91 µM. For the same compound, the GI50 (UACC-62; [3]) was 2.14 µM, the CC50 (UACC-62; [4]) was over 100 µM and the “%GI” value (UACC-62; one dose 10 µM) was 74.53%. The “GP (growth percent)” value (UACC-62; one dose 10 µM) was 25.47, the TGI (OVCAR-5; 5-dose 0.01-100 µM) was 54.1 µM and the GI50 (OVCAR-5; [3]) was 18.8 µM. For the same compound, the CC50 (OVCAR-5; [4]) was over 100 µM, the “%GI” value (OVCAR-5; one dose 10 µM) was 37.70% and the “GP (growth percent)” value (OVCAR-5; one dose 10 µM) was 62.30. For the same compound, the TGI (SN 12C; 5-dose 0.01-100 µM) was 33.7 µM, the GI50 (SN 12C; Homo sapiens, SN12C, 5-dose 0.01-100 µM) was 3.05 µM and the CC50 (SN 12C; Homo sapiens, SN12C, 5-dose 0.01-100 µM, read-out: LC50 (the source's name)) was over 100 µM. For the same compound, the “%GI” value (SN 12C; one dose 10 µM) was 68.55%, the “GP (growth percent)” value (SN 12C; one dose 10 µM) was 31.45 and the TGI (TK-10; 5-dose 0.01-100 µM) was 95.3 µM. For the same compound, the GI50 (TK-10; [3]) was 10.2 µM, the CC50 (TK-10; [4]) was over 100 µM and the “%GI” value (TK-10; one dose 10 µM) was 36.16%. For the same compound, the “GP (growth percent)” value (TK-10; one dose 10 µM) was 63.84, the TGI (MDA-MB-231; 5-dose 0.01-100 µM) was 83.5 µM and the GI50 (MDA-MB-231; Homo sapiens) was 4.94 µM. For the same compound, the CC50 (MDA-MB-231; [4]) was over 100 µM, the “%GI” value (MDA-MB-231; one dose 10 µM) was 63.47% and the “GP (growth percent)” value (MDA-MB-231; one dose 10 µM) was 36.53. For the same compound, the TGI (T-47D; 5-dose 0.01-100 µM) was 25.8 µM, the GI50 (T-47D; [5]) was 3.68 µM and the LC50 (lethal concentration, 50% cell kill) (T-47D; [5]) was over 100 µM. The “%GI” value (T-47D; one dose 10 µM) was 65.17%, the “GP (growth percent)” value (T-47D; one dose 10 µM) was 34.83 and the LC50 (50% lethal concentration) (MDA-MB-468; Homo sapiens, MDA-MB-468, read-out: LC50) was over 100 µM. The GI50 (MDA-MB-468; Homo sapiens, MDA-MB-468, 5-dose 0.01-100 µM) was 3.55 µM, the TGI (MDA-MB-468; MDA-MB-468, 5-dose 0.01-100 µM) was 21.6 µM and the “%GI” value (MDA-MB-468; MDA-MB-468, one dose 10 µM) was 65.32%. For the same compound, the “GP (growth percent)” value (MDA-MB-468; MDA-MB-468, one dose 10 µM) was 34.68, the “Mean % GI” value ([1]; 10 µM) was 56.51% and the “Selectivity Ratio (MID a:MID b)” value ([1]; 5-dose assay) was 0.92. For the same compound, the GI50 [1, 6] was 5.32 µM, the “Mean % GI” value (Melanoma cell line panel; 10 µM) was 76.24% and the “Selectivity Ratio (MID a:MID b)” value (Melanoma cell line panel; 5-dose assay) was 1.06. The GI50 (Melanoma cell line panel; [6]) was 4.59 µM, the “Mean % GI” value ([2]; 10 µM) was 72.17% and the “Selectivity Ratio (MID a:MID b)” value ([2]; 5-dose assay) was 1.07. For the same compound, the GI50 [2, 6] was 4.55 µM.

Reference: PMC8398451, “Molecular Engineering of Curcumin, an Active Constituent of Curcuma longa L. (Turmeric) of the Family Zingiberaceae with Improved Antiproliferative Activity” (Plants, 2021)
